Measured values from EPA's ToxValDB 9.5.
Where “and” joins values, the source holds several entries; their conditions need not be identical. Equal values may be shown once.

Test system: Rattus norvegicus
Details: inhalation; for NEL / LEL: Crl:CD(SD) BR
[1] = chronic, duration: 2 years, F, Crl:CD BR, Developmental: Whole Body: Survival + General Toxicity: Whole Body: Body Weight Change + Hepatic: Liver: Liver Histopathology + Hepatic: …
[2] = chronic, duration: 2 years, F, Blood: Eosinophils + Blood: Monocytes
[3] = chronic, duration: 2 years, F, Blood: Sorbitol Dehydrogenase (SDH), Blood
[4] = chronic, duration: 2 years, F, Liver: Liver Weight, Absolute
[5] = chronic, duration: 2 years, F, Mammary Gland: Mammary Gland Fibroadenoma
[6] = chronic, duration: 2 years, M, Crl:CD BR, Developmental: Whole Body: Survival + General Toxicity: Whole Body: Body Weight Change + Hepatic: Liver: Focal Liver Necrosis + Hepatic: …
[7] = chronic, duration: 2 years, M, Blood: Monocytes + Liver: Aspartate Aminotransferase (AST), Blood
[8] = chronic, duration: 2 years, M, Heart: Heart Weight, Absolute + Liver: Focal Liver Necrosis + Lung: Cholesterol Cleft/Granuloma in Lung
[9] = chronic, duration: 2 years, M, Kidney: Renal Tubular Pigment + Whole Body: Body Weight Change + Whole Body: Terminal Body Weight, Absolute
[10] = chronic, duration: 2 years, M, Kidney: Urobilinogen, Urine
[11] = reproduction developmental, duration: 9 days, F, Crl: CD BR, generation: P0, P0: General Toxicity: Whole Body: Maternal Body Weight Change + P0: General Toxicity: Whole Body: Mortality + P0: Nervous: Whole Body: …
[12] = reproduction developmental, duration: 9 days, F, Crl:CD BR, generation: P0, P0: Developmental: Uterus: Implantation + P0: Developmental: Uterus: Post-Implantation Loss + P0: Developmental: Uterus: Pre-Implantation …
[13] = reproduction developmental, duration: 9 days, F, Crl:CD BR, generation: P0, P0: Developmental: Uterus: Post-Implantation Loss + P0: Developmental: Uterus: Resorptions, Mean/Litter + P0: General Toxicity: Whole Body: …
[14] = reproduction developmental, duration: 9 days, F, generation: P0, P0: Ovary: Corpora Lutea
[15] = reproduction developmental, duration: 9 days, F, generation: P0, P0: Whole Body: Clinical Observations + P0: Whole Body: Maternal Body Weight Change

`FC(Cl)C(F)(F)F` (stereo unspecified) [2-Chloro-1,1,1,2-tetrafluoroethane] was tested, and the LOAEL (chronic, duration: 2 years, F, Crl:CD BR, Cardiovascular: Aorta: Aorta Histopathology + Cardiovascular: Heart: Heart Histopathology + Cardiovascular: Heart: Heart Weight, Absolute + …) was 279000 mg/m3, the LOAEL [1] was 279000 mg/m3 and the NOAEL [1] was 55800 mg/m3. For the same molecule, the LOAEL (chronic, duration: 2 years, F, Crl:CD BR, Hepatic: Blood: Globulin (G) + Hepatic: Liver: Alanine Aminotransferase (ALT) + Hepatic: Liver: Albumin (A) + Hepatic: Liver: Alkaline …) was 11200 mg/m3, the NEL (chronic, duration: 2 years, F, Adrenal: Adrenal Gland Histopathology + Adrenal: Adrenal Gland Weight, Absolute + Aorta: Aorta Histopathology + Brain: Brain Histopathology…) was 279000 mg/m3 and the NEL (chronic, duration: 2 years, F, Blood: Abnormal Lymphocytes + Blood: Bands + Blood: Basophils + Blood: Calcium (CA), Blood + Blood: Globulin (G), Blood + Blood: Glucose (…) was 279000 mg/m3. For the same molecule, the LEL (chronic, duration: 2 years, F, Blood: Chloride (CL), Blood + Kidney: Creatine Kinase (CK), Blood + Kidney: Creatinine (CREAT), Blood) was 11200 mg/m3, the LEL [2] was 55800 mg/m3 and the NEL [2] was 11200 mg/m3. The LEL [3] was 279000 mg/m3, the NEL [3] was 55800 mg/m3 and the LEL [4] was 55800 mg/m3. It also gave an NEL [4] of 11200 mg/m3, an LEL [5] of 279000 mg/m3 and an NEL [5] of 55800 mg/m3. For the same molecule, the LEL (chronic, duration: 2 years, F, Whole Body: Body Weight Change + Whole Body: Terminal Body Weight, Absolute) was 11200 mg/m3, the LOAEL (chronic, duration: 2 years, M, Crl:CD BR, Cardiovascular: Aorta: Aorta Histopathology + Cardiovascular: Heart: Heart Histopathology + Cardiovascular: Heart: Heart Weight, Absolute + …) was 279000 mg/m3 and the LOAEL [6] was 279000 mg/m3. The NOAEL [6] was 55800 mg/m3, the LOAEL (chronic, duration: 2 years, M, Crl:CD BR, Hepatic: Blood: Globulin (G) + Hepatic: Liver: Alanine Aminotransferase (ALT) + Hepatic: Liver: Albumin (A) + Hepatic: Liver: Alkaline …) was 11200 mg/m3 and the NEL (chronic, duration: 2 years, M, Adrenal: Adrenal Gland Histopathology + Adrenal: Adrenal Gland Weight, Absolute + Aorta: Aorta Histopathology + Brain: Brain Histopathology…) was 279000 mg/m3. The NEL (chronic, duration: 2 years, M, Blood: Abnormal Lymphocytes + Blood: Bands + Blood: Basophils + Blood: Calcium (CA), Blood + Blood: Eosinophils + Blood: Globulin (G), Blood…) was 279000 mg/m3, the LEL (chronic, duration: 2 years, M, Blood: Chloride (CL), Blood + Liver: Alanine Aminotransferase (ALT), Blood) was 11200 mg/m3 and the LEL [7] was 55800 mg/m3. For the same molecule, the NEL [7] was 11200 mg/m3, the LEL [8] was 279000 mg/m3 and the NEL [8] was 55800 mg/m3. It also gave an LEL [9] of 55800 mg/m3, an NEL [9] of 11200 mg/m3 and an LEL [10] of 279000 mg/m3. It also gave an NEL [10] of 55800 mg/m3, an LEL (chronic, duration: 2 years, M, Liver: Liver Weight, Absolute + Spleen: Spleen Weight, Absolute) of 11200 mg/m3 and an LOAEL (developmental, duration: 9 days, M/F, Crl: CD BR, generation: F1, F1: Developmental: Uterus: Dead Fetuses + F1: Developmental: Uterus: Fetuses, Live + F1: General Toxicity: Whole Body: Body Weight, Fetal) of 279000 mg/m3. For the same molecule, the NOAEL (developmental, duration: 9 days, M/F, Crl:CD BR, generation: F1, F1: Developmental: Head: Head Abnormalities + F1: Developmental: Whole Body: External Abnormalities + F1: Developmental: Whole Body: Live …) was 27900 mg/m3 and 83700 mg/m3, the NEL (developmental, duration: 9 days, M/F, generation: F1, F1: Head: Head Abnormalities + F1: Whole Body: External Abnormalities + F1: Whole Body: Live Pups Born + F1: Whole Body: Skeletal …) was 279000 mg/m3 and the LEL (developmental, duration: 9 days, M/F, generation: F1, F1: Whole Body: Pup Weight Relative to Litter) was 27900 mg/m3. The LOAEL (reproduction developmental, duration: 9 days, F, Crl: CD BR, generation: P0, P0: Developmental: Uterus: Implantation + P0: Developmental: Uterus: Resorptions, Early + P0: Developmental: Uterus: Resorptions, Total + P0…) was 279000 mg/m3, the LOAEL [11] was 279000 mg/m3 and the NOAEL [11] was 55800 mg/m3. For the same molecule, the LOAEL [12] was 83700 mg/m3, the NOAEL [12] was 27900 mg/m3 and the NOAEL (reproduction developmental, duration: 9 days, F, Crl:CD BR, generation: P0, P0: Developmental: Uterus: Implantation + P0: Developmental: Uterus: Pre-Implantation Loss + P0: Reproductive: Ovary: Corpora Lutea) was 279000 mg/m3. It also gave an LOAEL [13] of 279000 mg/m3, an NOAEL [13] of 83700 mg/m3 and an LEL [14] of 83700 mg/m3. The NEL [14] was 27900 mg/m3, the LEL (reproduction developmental, duration: 9 days, F, generation: P0, P0: Uterus: Implantation) was 27900 mg/m3 and the NEL (reproduction developmental, duration: 9 days, F, generation: P0, P0: Uterus: Implantation + P0: Uterus: Resorptions, Early + P0: Uterus: Resorptions, Total + P0: Whole Body: Maternal Body Weight Change + …) was 279000 mg/m3. The NEL (reproduction developmental, duration: 9 days, F, generation: P0, P0: Uterus: Post-Implantation Loss + P0: Uterus: Pre-Implantation Loss + P0: Uterus: Resorptions, Mean/Litter + P0: Whole Body: Delivered …) was 279000 mg/m3, the LEL [15] was 279000 mg/m3 and the NEL [15] was 83700 mg/m3.
